Our source for the IC50 values is BindingDB's records for doi:10.1016/j.bmcl.2011.03.003 (Sanofi-Aventis, 2011).

The assay addresses Insulin-like growth factor 1 receptor (Homo sapiens, UniProt P08069). Description: Inhibition of IGF-induced autophosphosphorylation of GST-tagged human IGF1R expressed in SF21 cells by time resolved-fluorescent assay.

Insulin-like growth factor 1 receptor, sequence (P08069 31-736 limits assumed): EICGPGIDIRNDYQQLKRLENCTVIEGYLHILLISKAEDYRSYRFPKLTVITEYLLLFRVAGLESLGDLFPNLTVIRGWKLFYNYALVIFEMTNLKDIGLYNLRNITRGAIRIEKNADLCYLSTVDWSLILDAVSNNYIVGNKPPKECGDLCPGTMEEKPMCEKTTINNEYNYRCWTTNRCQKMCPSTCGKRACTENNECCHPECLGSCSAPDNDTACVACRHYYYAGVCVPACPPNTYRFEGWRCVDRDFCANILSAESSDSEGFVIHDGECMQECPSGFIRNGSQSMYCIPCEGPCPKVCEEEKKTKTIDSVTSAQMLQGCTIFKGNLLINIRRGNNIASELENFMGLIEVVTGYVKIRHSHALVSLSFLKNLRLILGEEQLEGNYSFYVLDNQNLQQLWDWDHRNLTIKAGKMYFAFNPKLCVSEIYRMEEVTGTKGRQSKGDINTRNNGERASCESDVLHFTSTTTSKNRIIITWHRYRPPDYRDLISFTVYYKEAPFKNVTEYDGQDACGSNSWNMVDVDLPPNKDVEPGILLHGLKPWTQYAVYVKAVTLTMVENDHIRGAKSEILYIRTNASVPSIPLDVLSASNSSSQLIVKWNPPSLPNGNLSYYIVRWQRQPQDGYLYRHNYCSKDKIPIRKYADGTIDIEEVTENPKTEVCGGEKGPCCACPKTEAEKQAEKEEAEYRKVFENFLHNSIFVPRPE
Insulin-like growth factor 1 receptor, sequence (P08069 741-1367 limits assumed): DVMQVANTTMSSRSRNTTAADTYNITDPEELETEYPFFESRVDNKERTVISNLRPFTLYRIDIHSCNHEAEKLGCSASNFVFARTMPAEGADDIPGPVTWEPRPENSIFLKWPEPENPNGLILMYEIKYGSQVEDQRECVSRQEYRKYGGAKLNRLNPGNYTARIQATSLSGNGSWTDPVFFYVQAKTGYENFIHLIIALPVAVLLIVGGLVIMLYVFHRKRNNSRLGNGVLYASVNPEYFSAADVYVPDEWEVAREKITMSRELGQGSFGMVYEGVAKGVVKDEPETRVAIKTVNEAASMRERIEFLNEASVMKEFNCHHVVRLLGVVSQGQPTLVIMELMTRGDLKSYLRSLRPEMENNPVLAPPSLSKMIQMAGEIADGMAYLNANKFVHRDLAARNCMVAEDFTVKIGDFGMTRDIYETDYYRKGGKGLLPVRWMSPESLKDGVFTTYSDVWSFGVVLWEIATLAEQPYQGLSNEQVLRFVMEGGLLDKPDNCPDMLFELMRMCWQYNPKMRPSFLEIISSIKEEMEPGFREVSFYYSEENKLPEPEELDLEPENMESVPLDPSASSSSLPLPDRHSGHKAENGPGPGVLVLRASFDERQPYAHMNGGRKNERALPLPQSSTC

`Cc1c(O)n(-c2ccc(S(=O)(=O)C(F)(F)F)cc2)c(=O)n1Cc1cnc[nH]1` [(S)-1-((1H-imidazol-4-yl)methyl)-5-methyl-3-(4-(trifluoromethylsulfonyl)phenyl)imidazolidine-2,4-dione] displayed an IC50 above 100 µM.

In the case of `Cc1c(O)n(-c2ccc(S(=O)(=O)C(F)(F)F)cc2)c(=O)n1Cc1cncc2ccccc12` [(S)-1-(isoquinolin-4-ylmethyl)-5-methyl-3-(4-(trifluoromethylsulfonyl)phenyl)imidazolidine-2,4-dione], the half-inhibitory concentration (IC50) was above 100 µM.

Turning to `Cc1c(O)n(-c2ccc(S(=O)(=O)C(F)(F)F)cc2)c(=O)n1Cc1ccccc1` [(S)-1-benzyl-5-methyl-3-(4-(trifluoromethylsulfonyl)phenyl)imidazolidine-2,4-dione], the IC50 was above 100 µM.

`Cc1c(O)n(-c2ccc(S(=O)(=O)C(F)(F)F)cc2)c(=O)n1Cc1cc[n+]([O-])cc1` [(S)-4-((5-methyl-2,4-dioxo-3-(4-(trifluoromethylsulfonyl)phenyl)imidazolidin-1-yl)methyl)pyridine 1-oxide]: the half-inhibitory concentration (IC50) is above 100 µM.

For `Cc1c(O)n(-c2ccc(S(=O)(=O)C(F)(F)F)cc2)c(=O)n1Cc1cc[n+]([O-])c2ccccc12` [(S)-4-((5-methyl-2,4-dioxo-3-(4-(trifluoromethylsulfonyl)phenyl)imidazolidin-1-yl)methyl)quinoline 1-oxide], the concentration for half-maximal inhibition (IC50) was above 100 µM.

With `Cc1c(O)n(-c2ccc(S(=O)(=O)C(F)(F)F)cc2)c(=O)n1CC1CCNCC1` [(S)-5-methyl-1-(piperidin-4-ylmethyl)-3-(4-(trifluoromethylsulfonyl)phenyl)imidazolidine-2,4-dione], the IC50 was above 100 µM.

For `Cc1c(O)n(-c2ccc(S(=O)(=O)C(F)(F)F)cc2)c(=O)n1Cc1ccccn1` [(S)-5-methyl-1-(pyridin-2-ylmethyl)-3-(4-(trifluoromethylsulfonyl)phenyl)imidazolidine-2,4-dione], the IC50 was above 100 µM.

Take `Cc1c(O)n(-c2ccc(S(C)(=O)=O)cc2)c(=O)n1Cc1ccnc2ccccc12` [(S)-5-methyl-3-(4-(methylsulfonyl)phenyl)-1-(quinolin-4-ylmethyl)imidazolidine-2,4-dione]: the IC50 is above 100 µM.

The term IC50 denotes the point on the concentration scale where inhibition reaches its midpoint. Read a low IC50 as greater potency in that assay.
